Measurements: US11319303B2 (WIGEN BIOMEDICINE TECHNOLOGY (SHANGHAI) CO., LTD., priority 2017, dated 2022)

Molecular target: LC3B (Homo sapiens, UniProt Q9GZQ8)
Experiment: Fluorescence Polarization (FP) Assay: displacement of FITC-labeled peptide from GST-LC3B
Type: binding
Conditions: not given
Description: The compounds of the present invention for regulating the autophagy-related protein LC3B were tested by Fluorescence Polarization (FP) Assay.
Fluorescence Polarization (FP) Assay Test

Structure (SMILES) | IC50 [µM]
CN(C)CCNC=C1C(=O)CC(c2cccc(Cl)c2F)CC1=O (centres unmarked) [Compound 384, 5-(3-chloro-2-fluorophenyl)-2-(((2-(dimethylamino)ethyl)amino)methylene) cyclohexane-1,3-dione] | < 3

Same assay, conditions: Fluorescence Polarization assay; GST-LC3B 180 nM, FITC-labeled peptide 18 nM, 25° C.; read-out: IC50

IC50 [µM] | Structure (SMILES)
< 3 | O=C1CC(c2cccc3[nH]cc(-c4ccccc4)c23)CC(=O)C1=CNCCN1CCN(CCO)CC1 (centres unmarked) [Compound 353, 2-(((2-(4-(2-hydroxyethyl)piperazin-1-yl)ethyl)amino)methylene)-5-(3-phenyl-1H-indol-4-yl)cyclohexane-1,3-dione]
< 3 | O=C1Nc2cc(C(F)(F)F)ccc2C(=O)/C1=C\NCCN1CCN(CCO)CC1 [Compound 354, 3-(((2-(4-(2-hydroxyethyl)piperazin-1-yl)ethyl)amino)methylene)-7-(trifluoromethyl) quinoline-2,4(1H,3H)-dione]
< 3 | O=C1CC(c2ccccc2)CC(=O)C1=CNc1cccc2c1CNC2=O (centres unmarked) [Compound 355, 2-(((1-oxoisoindolin-4-yl)amino)methylene)-5-phenylcyclohexane-1,3-dione]
< 3 | CN(C)CCNC=C1C(=O)CC(c2c(Cl)cccc2C(F)(F)F)CC1=O (centres unmarked) [Compound 358, 5-(2-chloro-6-(trifluoromethyl)phenyl)-2-(((2-(dimethylamino)ethyl)amino)methylene) cyclohexane-1,3-dione]
15 to 100 | CN(C)CCNC=C1C(=O)CC(C(=O)NCc2ccccc2)CC1=O (centres unmarked) [Compound 359, N-benzyl-4-(((2-(dimethylamino)ethyl)amino)methylene)-3,5-dioxocyclohexane-1-carboxamide]
3 to 15 | CN(C)CCNC=C1C(=O)CC(C(=O)Nc2ccc(Br)cc2)CC1=O (centres unmarked) [Compound 360, N-(4-bromophenyl)-4-(((2-(dimethylamino)ethyl)amino)methylene)-3,5-dioxocyclohexane-1-carboxamide]
< 3 | CN(C)CCNC=C1C(=O)CC(c2c(F)cccc2Cl)CC1=O (centres unmarked) [Compound 361, 5-(2-chloro-6-fluorophenyl)-2-(((2-(dimethylamino)ethyl)amino)methylene) cyclohexane-1,3-dione]
< 3 | CN(C)CCNC=C1C(=O)CC(c2cc(C(F)(F)F)ccc2Br)CC1=O (centres unmarked) [Compound 362, 5-(2-bromo-5-(trifluoromethyl)phenyl)-2-(((2-(dimethylamino)ethyl)amino)methylene) cyclohexane-1,3-dione]
3 to 15 | CN(C)CCNC=C1C(=O)CC(C(=O)Nc2ccc(Cl)cc2)CC1=O (centres unmarked) [Compound 363, N-(4-chlorophenyl)-4-(((2-(dimethylamino)ethyl)amino)methylene)-3,5-dioxocyclohexane-1-carboxamide]
< 3 | CN(C)CCNC=C1C(=O)CC(c2cc(Cl)cc(Cl)c2Cl)CC1=O (centres unmarked) [Compound 364, 2-(((2-(dimethylamino)ethyl)amino)methylene)-5-(2,3,5-trichlorophenyl) cyclohexane-1,3-dione]
< 3 | CN(C)CCNC=C1C(=O)CC(c2ccc(Br)s2)CC1=O (centres unmarked) [Compound 366, 5-(5-bromothiophen-2-yl)-2-(((2-(dimethylamino)ethyl)amino)methylene) cyclohexane-1,3-dione]
< 3 | CN(C)CCNC=C1C(=O)CC(c2ccc(-c3ccccc3)s2)CC1=O (centres unmarked) [Compound 367, 2-(((2-(dimethylamino)ethyl)amino)methylene)-5-(5-phenylthiophen-2-yl)cyclohexane-1,3-dione]
< 3 | CN(C)CCNC=C1C(=O)CC(c2ccc(F)cc2Cl)CC1=O (centres unmarked) [Compound 370, 5-(2-chloro-4-fluorophenyl)-2-(((2-(dimethylamino)ethyl)amino)methylene) cyclohexane-1,3-dione]
< 3 | CN(C)CCNC=C1C(=O)CC(c2cscc2-c2ccccc2)CC1=O (centres unmarked) [Compound 371, 2-(((2-(dimethylamino)ethyl)amino)methylene)-5-(4-phenylthiophen-3-yl)cyclohexane-1,3-dione]
< 3 | Cc1ccc(NC(=O)CN2CCN(CCNC=C3C(=O)CC(c4ccccc4Br)CC3=O)CC2)cc1 (centres unmarked) [Compound 372, 2-(4-(2-(((4-(2-bromophenyl)-2,6-dioxocyclo-hexylidene)methyl)amino)ethyl)piperazin-1-yl)-N-(p-tolyl) acetainide]
< 3 | CNc1cccc(C2CC(=O)C(=CNCCN3CCN(CCO)CC3)C(=O)C2)c1Br (centres unmarked) [Compound 374, 5-(2-bromo-3-(methylamino)phenyl)-2-(((2-(4-(2-hydroxyethyl)piperazin-1-yl)ethyl)amino)methylene) cyclohexane-1,3-dione]
< 3 | O=C1CC(c2c[nH]c3cccc(Br)c23)CC(=O)C1=CNCCN1CCN(CCO)CC1 (centres unmarked) [Compound 375, 5-(4-bromo-1H-indol-3-yl)-2-(((2-(4-(2-hydroxyethyl)piperazin-1-yl)ethyl)amino)methylene) cyclohexane-1,3-dione]
< 3 | CN(C)CCNC=C1C(=O)CC(c2cc(C(F)(F)F)ccc2F)CC1=O (centres unmarked) [Compound 376, 2-(((2-(dimethylamino)ethyl)amino)methylene)-5-(2-fluoro-5-(trifluoromethyl)phenyl) cyclohexane-1,3-dione]

IC50 [µM] | Structure (SMILES)
< 3 | CN(C)CCNC=C1C(=O)CC(c2c(C(F)(F)F)ccc(Cl)c2Cl)CC1=O (centres unmarked) [Compound 377, 5-(2,3-dichloro-6-(trifluoromethyl)phenyl)-2-(((2-(dimethylamino)ethyl)amino)methylene) cyclohexane-1,3-dione]
< 3 | CN(C)CCNC=C1C(=O)CC(c2c(C(F)(F)F)ccc(Cl)c2F)CC1=O (centres unmarked) [Compound 378, 5-(3-chloro-2-fluoro-6-(trifluoromethyl)phenyl)-2-(((2-(dimethylamino)ethyl)amino)methylene) cyclohexane-1,3-dione]
< 3 | COc1cc(Br)c(C2CC(=O)C(=CNCCN(C)C)C(=O)C2)cc1OC (centres unmarked) [Compound 379, 5-(2-bromo-4,5-dimethoxyphenyl)-2-(((2-(dimethylamino)ethyl)amino)methylene) cyclohexane-1,3-dione]
3 to 15 | Cc1ccc(NC(=O)C2CC(=O)C(=CNCCN(C)C)C(=O)C2)cc1F (centres unmarked) [Compound 380, 4-(((2-(dimethylamino)ethyl)amino)methylene)-N-(3-fluoro-4-methylphenyl)-3,5-dioxocyclohexane-1-carboxamide]
< 3 | CN(C)CCNC=C1C(=O)CC(c2cc(C(F)(F)F)ccc2Cl)CC1=O (centres unmarked) [Compound 381, 5-(2-chloro-5-(trifluoromethyl)phenyl)-2-(((2-(dimethylamino)ethyl)amino)methylene) cyclohexane-1,3-dione]
< 3 | CN(C)CCNC=C1C(=O)CC(c2ccc(Cl)cc2F)CC1=O (centres unmarked) [Compound 382, 5-(4-chloro-2-fluorophenyl)-2-(((2-(dimethylamino)ethyl)amino)methylene) cyclohexane-1,3-dione]
< 3 | CN(C)CCNC=C1C(=O)CC(c2c(F)cccc2F)CC1=O (centres unmarked) [Compound 383, 5-(2,6-difluorophenyl)-2-(((2-(dimethylamino)ethyl)amino)methylene) cyclohexane-1,3-dione]
< 3 | CN(C)CCNC=C1C(=O)CC(c2ccccc2N)CC1=O (centres unmarked) [Compound 386, 5-(2-aminophenyl)-2-(((2-(dimethylamino)ethyl)amino)methylene) cyclohexane-1,3-dione]
< 3 | O=C1CC(c2cccc(F)c2F)CC(=O)C1=CNCCN1CCN(CCO)CC1 (centres unmarked) [Compound 387, 5-(2,3-difluorophenyl)-2-(((2-(4-(2-ethoxyl)piperazin-1-yl)ethyl)amino)methylene) cyclohexane-1,3-dione]
< 3 | CN(C)CCNC=C1C(=O)CC(c2cscc2Br)CC1=O (centres unmarked) [Compound 388, 5-(4-bromothiophen-3-yl)-2-(((2-(dimethylamino)ethyl)amino)methylene) cyclohexane-1,3-dione]
< 3 | CN(C)CCNC=C1C(=O)CC(C(=O)Nc2ccc(-c3ccccc3)cc2)CC1=O (centres unmarked) [Compound 389]
< 3 | CN(C)CCNC=C1C(=O)CC(c2cc(Cl)ccc2F)CC1=O (centres unmarked) [Compound 390, 5-(5-chloro-2-fluorophenyl)-2-(((2-(dimethylamino)ethyl)amino)methylene) cyclohexane-1,3-dione]
15 to 100 | O=C1CC(C(O)c2ccccc2)C(=O)/C1=C\NCCN1CCN(CCO)CC1 (centres unmarked) [Compound 391, 4-(hydroxy(phenyl)methyl)-2-(((2-(4-(2-ethoxyl)piperazin-1-yl)ethyl)amino)methylene) cyclopentane-1,3-dione]
< 3 | O=C1CC(c2cc3[nH]ccc3cc2Br)CC(=O)C1=CNCCN1CCN(CCO)CC1 (centres unmarked) [Compound 392, 5-(5-bromo-1H -indol-6-yl)-2-(((2-(4-(2-ethoxyl)piperazin-1-yl)ethyl)amino)methylene) cyclohexane-1,3-dione]
3 to 15 | CCN(CC)CCCC(C)N/C=C1\C(=O)Nc2cc(Cl)ccc2C1=O (centres unmarked) [Compound 395, 7-chloro-3-(((5-(diethylamino)penta-2-yl)amino)methylene) quinoline-2,4 (1H,3H)-dione]
< 3 | CN(C)CCNC=C1C(=O)CC(c2c(Cl)ccc(Cl)c2Cl)CC1=O (centres unmarked) [Compound 397, 2-(((2-(dimethylamino)ethyl)amino)methylene)-5-(2,3,6-trichlorophenyl) cyclohexane-1,3-dione]
< 3 | CN(C)CCNC=C1C(=O)CC(c2c(Cl)ccc(F)c2F)CC1=O (centres unmarked) [Compound 398, 5-(6-chloro-2,3-difluorophenyl)-2-(((2-(dimethylamino)ethyl)amino)methylene) cyclohexane-1,3-dione]
< 3 | O=C1CC(c2cccc(Cl)c2Cl)CC(=O)C1=CNCCN1CCN(CCO)CC1 (centres unmarked) [Compound 400, 5-(2,3-dichlorophenyl)-2-(((2-(4-(2-ethoxyl)piperazin-1-yl)ethyl)amino)methylene) cyclohexane-1,3-dione]

Structure (SMILES) | IC50 [µM]
O=C1CC(c2c[nH]c3cccc(Cl)c23)CC(=O)C1=CNCCN1CCN(CCO)CC1 (centres unmarked) [Compound 394, 5-(4-chloro-1H-indol-3-yl)-2-(((2-(4-(2-ethoxyl)piperazin-1-yl)ethyl)amino)methylene) cyclohexane-1,3-dione] | < 3
